Results on two molecules are retold here after publication PMC5638581 (Molecular Biology of the Cell, 2017).

Series [1] concerns the target TorsinA (TorA) with LULL1 luminal domain (LULL1^LD) (Homo sapiens, UniProt O14656). Conditions: 3 μM TorA, 3 μM LULL1 LD, 2 mM ATP, 37 °C, 1 h.
Series [2] has as its target TorsinA (TorA) with LAP1 luminal domain (LAP1^LD) (Homo sapiens, UniProt O14656). As to conditions: 3 μM TorA, 3 μM LAP1 LD, 2 mM ATP, 37 °C, 1 h.
Series [3] deals with the molecule itself. The experiment in a line: SEC + other: negative stain electron microscopy.

Chain of TorsinA (TorA) with LULL1 luminal domain (LULL1^LD) (Q8NFQ8 236-470 partner, one chain of several): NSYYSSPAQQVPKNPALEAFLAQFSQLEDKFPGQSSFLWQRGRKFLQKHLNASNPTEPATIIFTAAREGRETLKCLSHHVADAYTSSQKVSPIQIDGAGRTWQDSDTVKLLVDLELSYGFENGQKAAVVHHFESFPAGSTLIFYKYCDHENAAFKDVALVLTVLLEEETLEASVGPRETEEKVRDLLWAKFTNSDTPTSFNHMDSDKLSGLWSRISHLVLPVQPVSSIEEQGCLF
Chain of TorsinA (TorA) with LAP1 luminal domain (LAP1^LD) (Q5JTV8 356-583 partner, one chain of several): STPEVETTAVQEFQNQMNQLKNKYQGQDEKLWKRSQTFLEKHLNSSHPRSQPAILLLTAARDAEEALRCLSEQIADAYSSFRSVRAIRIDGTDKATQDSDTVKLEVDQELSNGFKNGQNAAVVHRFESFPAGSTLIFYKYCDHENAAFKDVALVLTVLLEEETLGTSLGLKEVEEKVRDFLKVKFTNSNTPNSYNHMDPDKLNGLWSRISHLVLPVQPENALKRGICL

As to `Nc1ncnc2c1ncn2[C@@H]1O[C@H](COP(=O)(O)OP(=O)(O)OP(=O)(O)O)[C@@H](O)[C@H]1O` [ATP], the “malachite green phosphate release (ATPase)” value in series [1] is “ATPase activity was measured in the absence and presence of LAP1^LD and LULL1^LD”; in series [2] it was “ATPase activity was measured in the absence and presence of LAP1^LD and LULL1^LD”.

B1: TorsinA wild type, C-terminally FLAG-tagged, full length (enzyme, human, UniProt O14656 21-332, looked up)
chain: VEPISLGLALAGVLTGYIYPRLYCLFAECCGQKRSLSREALQKDLDDNLFGQHLAKKIILNAVFGFINNPKPKKPLTLSLHGWTGTGKNFVSKIIAENIYEGGLNSDYVHLFVATLHFPHASNITLYKDQLQLWIRGNVSACARSIFIFDEMDKMHAGLIDAIKPFLDYYDLVDGVSYQKAMFIFLSNAGAERITDVALDFWRSGKQREDIKLKDIEHALSVSVFNNKNSGFWHSSLIDRNLIDYFVPFLPLEYKHLKMCIRVEMQSRGYEIDEDIVSRVAEEMTFFPKEERVFSDKGCKTVFTKLDYYYDD
One may read the stoichiometry N as a count of units in the complex or per binding partner. With B1, the “stoichiometry N” value in series [3] is about 6.
